Data set [1] in a line: Cytotoxicity against Sf9 cells assessed as inhibition of cell growth measured after 24 hrs by MTT assay. The note with it: Spodoptera frugiperda. The data set is classed as toxicity, cell-based. A general note: Tetrazolium dyes change colour on reduction, which living cells bring about.
A short description of data set [2]: Anticancer activity against human KBV cells assessed as reduction in cell growth measured after 72 hrs by SRB assay. Type of data set: functional, cell-based. On the technique in general: The SRB assay estimates cell density from bound dye.
Data set [3] relates to A549. Nature of the data set: Antiproliferative activity against human A549 cells assessed as inhibition of cell viability measured after 72 hrs by CCK-8 assay. Type of data set: functional, cell-based. The note with it: A549, 72 h.
The test system of a further data set is HL-60. The data set is described as follows: Antiproliferative activity against human HL-60 cells assessed as reduction in cell viability incubated for 48 hrs by MTT assay. The note with it: HL-60, 48 h. The data set is classed as functional, cell-based.
Data set [4] is described as follows: Antitumor activity against mouse RM1 cells xenografted in C57BL/6 mouse assessed as tumor growth inhibition at 9 mg/kg, ip administered every other day for 3 times and measured on day 7 relative to control. Type of data set: functional. The note with it: RM1, 168 h, time 7 day, read-out: TGI.
Data set [5] relates to A549. Nature of the data set: Antitumor activity against human A549 cells assessed as reduction in cell viability incubated for 72 hrs by CCK-8 assay. The data set is classed as functional, cell-based. The note with it: A549, 72 h.
The test system of the next data set is PC-3M. Nature of the data set: Cytotoxicity against human PC-3M cells assessed as reduction in cell viability measured after 72 hrs by MTS assay. Type of data set: functional, cell-based.
A further data set concerns HT-29. The data set is described as follows: Antiproliferative activity against human HT-29 cells assessed as reduction in cell viability incubated for 72 hrs by MTT assay. The data set is classed as functional, cell-based. The note with it: HT-29, 72 h.
In a further data set the test system is HepG2. The data set is described as follows: Antiproliferative activity against human HepG2 cells assessed as reduction in cell viability incubated for 72 hrs by MTT assay. The data set is classed as functional, cell-based. The note with it: HepG2, 72 h.

With `CCCCCNC(=O)c1c2c(nc3ccccc13)-c1cc3c(c(=O)n1C2)COC(=O)[C@]3(O)CC`, the IC50 – broadly, the concentration that gives 50% inhibition – at 24 h in data set [1] is 2010 nM. Same read-out and setting: the figure for `CC[C@@]1(O)C(=O)OCc2c1cc1n(c2=O)Cc2c-1nc1ccccc1c2C(=O)NCc1ccc(F)cc1` is 2010 nM.

In the case of `CC[C@@]1(O)C(=O)OCc2c1cc1n(c2=O)Cc2c-1nc1ccccc1c2CN1CCN(C(=S)Nc2cccc3ccccc23)CC1`, the IC50 in data set [2] is 275000 nM. Regarding `CC[C@]1(O)c2cc3n(c(=O)c2CO[C@H]1F)Cc1cc2c4c(ccc2nc1-3)OCN(C1CCC1)C4`, the IC50 in the data set on A549 [3] was 630 nM. `CC[C@]1(O)c2cc3n(c(=O)c2CO[C@H]1F)Cc1cc2c4c(ccc2nc1-3)OCN(C1CCCCC1)C4`: the IC50 in the data set with A549 [3] was found to be 630 nM.

As to `CC[C@@]1(OCc2cn([C@@H]3c4cc5c(cc4[C@@H](c4cc(OC)c(O)c(OC)c4)[C@H]4C(=O)OC[C@@H]43)OCO5)nn2)C(=O)OCc2c1cc1n(c2=O)Cc2cc3ccccc3nc2-1`, in the data set with HL-60, the IC50 worked out at 17700 nM.

As for `CC[C@]1(O)c2cc3n(c(=O)c2CO[C@H]1F)Cc1cc2c4c(ccc2nc1-3)OCN(C1CC1)C4`, the IC50 with A549 [3] worked out at 630 nM. Turning to `CC[C@@]1(O)C(=O)OCc2c1cc1n(c2=O)Cc2c-1nc1ccccc1c2CN1CCN(C(=S)Nc2ccccc2OC)CC1`, in [2], the IC50 was found to be 514000 nM.

For `CC[C@@]1(OC(=O)CCC(=O)O[C@@H]2O[C@@H](C)[C@H](OC(C)=O)[C@@H](OC(C)=O)[C@H]2OC(C)=O)C(=O)OCc2c1cc1n(c2=O)Cc2cc3cc4c(cc3nc2-1)OCO4`, the inhibition in vivo at 9 mg/kg in [4] was 44.9%. Take `CC[C@]1(O)c2cc3n(c(=O)c2CO[C@H]1F)Cc1cc2c4c(ccc2nc1-3)OCN(C1CCCC1)C4`: the IC50 with A549 [3] is 630 nM. On to `CC[C@@]1(OC(=O)[C@@H](Cc2ccccc2)NC(=O)OC(C)(C)C)C(=O)OCc2c1cc1n(c2=O)Cc2cc3ccccc3nc2-1`, for which the values for the IC50 in the data set on A549 [5] and with PC-3M were 18 nM and 88 nM, respectively.

With `CCCCCCCCCCCCCCCCOC(=O)[C@@]1(C)CCc2c(C)c(OC(=O)CCC(=O)O[C@]3(CC)C(=O)OCc4c3cc3n(c4=O)Cc4c-3nc3ccc(O)cc3c4CC)c(C)c(C)c2O1`, the IC50 with HT-29 amounted to 45.1 nM; with HepG2 it was 165 nM. In the case of `CC[C@@]1(O)C(=O)OCc2c1cc1n(c2=O)Cc2c-1nc1ccccc1c2C(=O)NCc1ccccc1`, in data set [1], the IC50 at 24 h came to 2010 nM.

Source of the values: ChEMBL document CHEMBL5625230, “The recent developments of camptothecin and its derivatives as potential anti-tumor agents” (Eur J Med Chem, 2023).
